The values that follow come from ChEMBL document CHEMBL4229557, “Synthesis and SAR of new isoxazole-triazole bis-heterocyclic compounds as analogues of natural lignans with antiparasitic activity” (Bioorg Med Chem, 2018).

The test system of data set [1] is Trypanosoma cruzi. The experiment in a line: Growth inhibition of Trypanosoma cruzi Tulahuen amastigote forms infected in human THP1 cells after 72 hrs by beta-galactosidase reporter gene assay. Particulars: THP-1, 72 h. The class given is functional. In general terms: A reporter such as luciferase makes a cellular process visible.
In data set [2] the test system is Trypanosoma cruzi. The experiment in a line: Growth inhibition of Trypanosoma cruzi Tulahuen amastigote forms infected in human THP1 cells at 20 uM after 72 hrs by beta-galactosidase reporter gene assay relative to control. In kind it is functional. Particulars: THP-1, 72 h, read-out: GI.
Data set [3] can be described thus: Selectivity index, ratio of CC50 for human THP1 cells to GI50 for Trypanosoma cruzi Tulahuen amastigote forms infected in human THP1 cells. The class given is toxicity, cell-based. Particulars: read-out: Selectivity Index.
Data set [4] is described as follows: Cytotoxicity against human THP1 cells after 72 hrs by MTT assay. The class given is cell-based. Particulars: THP-1 cells. (Tetrazolium assays rely on reduction of a dye to a coloured formazan, in cell work by metabolically active cells.)
Data set [5] has as its system Leishmania amazonensis. The experiment in a line: Growth inhibition of Leishmania amazonensis MHOM/BR/77/LTB0016 amastigote forms expressing beta-galactosidase infected in human THP1 cells at 2 uM by colorimetrc assay relative to control. In kind it is functional. Particulars: MHOM/BR/77/LTB0016, THP-1, read-out: GI.
Data set [6] concerns Leishmania amazonensis. The experiment in a line: Growth inhibition of Leishmania amazonensis MHOM/BR/77/LTB0016 amastigote forms expressing beta-galactosidase infected in human THP1 cells at 100 uM by colorimetrc assay relative to control. In kind it is functional.
The subject of data set [7] is Trypanosoma cruzi. The experiment in a line: Growth inhibition of Trypanosoma cruzi Tulahuen amastigote forms infected in human THP1 cells at 100 uM after 72 hrs by beta-galactosidase reporter gene assay relative to control. In kind it is functional. Particulars: THP-1, 72 h, read-out: GI.
Data set [8] deals with Trypanothione reductase (Trypanosoma cruzi) (UniProt P28593). Put plainly: Inhibition of Trypanosoma cruzi Trypanothione reductase expressed in Escherichia coli BL21(DE3) at 100 uM using T(S)2 as substrate incubated for 30 mins measured for 30 mins in presence of NADPH by DTNB reagent based assay relative to control.

Calls of active or inactive are those of the source. The rule behind the calls is not given here. Bounds are passed on as bounds.

Sequence of Trypanothione reductase (Trypanosoma cruzi) (P28593 whole entry, looked up): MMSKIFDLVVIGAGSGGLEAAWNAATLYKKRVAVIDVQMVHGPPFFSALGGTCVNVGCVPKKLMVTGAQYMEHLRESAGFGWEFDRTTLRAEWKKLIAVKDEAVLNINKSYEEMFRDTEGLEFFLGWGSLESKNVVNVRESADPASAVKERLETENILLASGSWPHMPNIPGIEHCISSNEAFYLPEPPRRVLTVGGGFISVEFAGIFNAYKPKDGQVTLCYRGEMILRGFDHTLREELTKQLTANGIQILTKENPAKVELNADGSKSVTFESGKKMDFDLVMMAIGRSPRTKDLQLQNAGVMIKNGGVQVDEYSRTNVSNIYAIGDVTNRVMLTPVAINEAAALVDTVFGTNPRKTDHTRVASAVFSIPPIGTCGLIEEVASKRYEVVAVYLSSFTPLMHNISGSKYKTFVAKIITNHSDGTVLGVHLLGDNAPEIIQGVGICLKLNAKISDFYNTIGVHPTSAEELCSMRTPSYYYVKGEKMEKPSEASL

The term GI50 denotes the concentration at which growth is held to half of that of the control. Broadly, the CC50 is the concentration at which the toxic effect on the cells reaches its halfway point. Low readings indicate greater toxicity to the cells, high ones lower toxicity to the cells. On to `O=C(Cn1ccnc1[N+](=O)[O-])NCc1ccccc1` [BENZNIDAZOLE], for which growth with Trypanosoma cruzi [1] was halved (GI50) at 10.2 µM. For the same compound, the inhibition of growth at 20 µM in the data set on Trypanosoma cruzi [2] was 93%. For the same compound, the selectivity ratio in data set [3] is more than 49. In addition, the CC50 at 72 h in data set [4] was more than 500 µM.

With `C[C@@H]1[C@H](O)[C@@H](C)/C=C/C=C/C=C/C=C/C=C/C=C/C=C/[C@H](O[C@@H]2O[C@H](C)[C@@H](O)[C@H](N)[C@@H]2O)C[C@@H]2O[C@](O)(C[C@@H](O)C[C@@H](O)[C@H](O)CC[C@@H](O)C[C@@H](O)CC(=O)O[C@H]1C)C[C@H](O)[C@H]2C(=O)O` [AMPHOTERICIN B], the inhibition of growth at 2 µM in the data set with Leishmania amazonensis [5] was found to be 96.5%.

A word on the inhibition: it is the share of the control response that was lost under treatment. As for `COc1cc(OC)cc(-c2cn(Cc3cc(-c4ccccc4)no3)nn2)c1`, the “growth inhibition (GI)” value in the data set on Leishmania amazonensis [6] was “inactive”. In the data set with Trypanosoma cruzi [1], growth was halved (GI50) at 54.5 µM. The selectivity ratio in data set [3] was determined as 2.6. It took 143 µM to reach half-maximal cytotoxicity in data set [4] (CC50 at 72 h). Further, in the data set with Trypanosoma cruzi [7], the inhibition of growth at 100 µM came to 95.3%. Also, the inhibition in data set [8] was 0%.
